Measured values as given in PubChem BioAssay AID330 (DTP/NCI, 2004).
“And” between values parts separate entries of the source, which are not always exact repeats. Identical values can stand only once. Toxic doses and inconclusive results are not listed. Peptide text beside a SMILES is read from it.

System: P388 leukemia ip, CD2F1 mice, survival T/C
Assay: NCI In Vivo Anticancer Drug Screen. Data for tumor model P388 Leukemia (intraperitoneal) in CD2F1 (CDF1) mice
Conditions: endpoint: median survival time, higher = longer survival
Outline: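 Mice carrying the transplanted tumor received test compound or vehicle. Survival was recorded in each group, and the value is the treated-group measurement divided by that of the vehicle-treated control group.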

For CN1C(=O)OC(c2ccc(Cl)cc2)C1=O (configuration not stated), the T/C (dose: 25.0 mg/kg/injection, schedule: Q01DX005 (ip), vehicle: Klucel (hydroxypropylcellulose) (HPC)) was 100 % of control, the T/C (dose: 50.0 mg/kg/injection, schedule: Q01DX005 (ip), vehicle: Klucel (hydroxypropylcellulose) (HPC)) was 100 % of control and the T/C (dose: 100.0 mg/kg/injection, schedule: Q01DX005 (ip), vehicle: Klucel (hydroxypropylcellulose) (HPC)) was 107 % of control. For the same compound, the T/C (dose: 200.0 mg/kg/injection, schedule: Q01DX005 (ip), vehicle: Klucel (hydroxypropylcellulose) (HPC)) was 100 % of control.
With COC(=O)C12CC(CCC1C13CCC4(OCCO4)C(C)(C)C1C(=O)OC3)C(C)C2O (configuration not stated) the T/C (dose: 100.0 mg/kg/injection, schedule: Q04DX002 (ip), vehicle: saline with Tween-80) was 97 % of control, the T/C (dose: 200.0 mg/kg/injection, schedule: Q04DX002 (ip), vehicle: saline with Tween-80) was 94 % of control and the T/C (dose: 400.0 mg/kg/injection, schedule: Q04DX002 (ip), vehicle: saline with Tween-80) was 100 % of control.
CCCCC(=O)c1c(O)c2ccccc2oc1=O was tested, and the T/C (dose: 15.0 mg/kg/injection, schedule: Q01DX005 (ip), vehicle: saline with Tween-80) was 100 % of control, the T/C (dose: 30.0 mg/kg/injection, schedule: Q01DX005 (ip), vehicle: saline with Tween-80) was 97 % of control and the T/C (dose: 60.0 mg/kg/injection, schedule: Q01DX005 (ip), vehicle: saline with Tween-80) was 116 % of control and 94 % of control.
In the case of O=[N+]([O-])c1ccc(S(=O)(=O)c2ccc([N+](=O)[O-])cc2)cc1, the T/C (dose: 6.25 mg/kg/injection, schedule: Q04DX003 (ip), vehicle: suspension in saline) is reported as 100 % of control, the T/C (dose: 12.5 mg/kg/injection, schedule: Q04DX003 (ip), vehicle: suspension in saline) is reported as 100 % of control and the T/C (dose: 25.0 mg/kg/injection, schedule: Q04DX003 (ip), vehicle: suspension in saline) is reported as 108 % of control. For the same compound, the T/C (dose: 50.0 mg/kg/injection, schedule: Q04DX003 (ip), vehicle: suspension in saline) was 106 % of control.
COC12C(COC(=O)NCCO)C3=C(C(=O)C(C)=C(N)C3=O)N1CC1NC12 (configuration not stated) was tested, and the T/C (dose: 3.12 mg/kg/injection, schedule: Q01DX009 (ip), vehicle: Klucel (hydroxypropylcellulose) (HPC)) was 122 % of control, the T/C (dose: 3.13 mg/kg/injection, schedule: Q01DX009 (ip), vehicle: Klucel (hydroxypropylcellulose) (HPC)) was 169 % of control and the T/C (dose: 4.5 mg/kg/injection, schedule: Q01DX009 (ip), vehicle: Klucel (hydroxypropylcellulose) (HPC)) was 155 % of control. For the same compound, the T/C (dose: 6.25 mg/kg/injection, schedule: Q01DX009 (ip), vehicle: Klucel (hydroxypropylcellulose) (HPC)) was 163 % of control and 175 % of control, the T/C (dose: 9.0 mg/kg/injection, schedule: Q01DX009 (ip), vehicle: Klucel (hydroxypropylcellulose) (HPC)) was 190 % of control and the T/C (dose: 12.5 mg/kg/injection, schedule: Q01DX009 (ip), vehicle: Klucel (hydroxypropylcellulose) (HPC)) was 160 % of control and 212 % of control. The T/C (dose: 18.0 mg/kg/injection, schedule: Q01DX009 (ip), vehicle: Klucel (hydroxypropylcellulose) (HPC)) was 192 % of control and 201 % of control and 238 % of control, the T/C (dose: 25.0 mg/kg/injection, schedule: Q01DX009 (ip), vehicle: Klucel (hydroxypropylcellulose) (HPC)) was 211 % of control and 214 % of control and the T/C (dose: 28.0 mg/kg/injection, schedule: Q01DX009 (ip), vehicle: Klucel (hydroxypropylcellulose) (HPC)) was 181 % of control and 182 % of control. The T/C (dose: 43.0 mg/kg/injection, schedule: Q01DX009 (ip), vehicle: Klucel (hydroxypropylcellulose) (HPC)) was 92 % of control and the T/C (dose: 50.0 mg/kg/injection, schedule: Q01DX009 (ip), vehicle: Klucel (hydroxypropylcellulose) (HPC)) was 104 % of control.
O=C(OCC(OC(=O)c1ccccc1)C(OC(=O)c1ccccc1)C(OC(=O)c1ccccc1)C(OC(=O)c1ccccc1)c1nn[nH]n1)c1ccccc1 (configuration not stated) was tested, and the T/C (dose: 12.5 mg/kg/injection, schedule: Q01DX005 (ip), vehicle: saline with Tween-80) was 94 % of control, the T/C (dose: 25.0 mg/kg/injection, schedule: Q01DX005 (ip), vehicle: saline with Tween-80) was 86 % of control and the T/C (dose: 50.0 mg/kg/injection, schedule: Q01DX005 (ip), vehicle: saline with Tween-80) was 90 % of control and 100 % of control. For the same compound, the T/C (dose: 100.0 mg/kg/injection, schedule: Q01DX005 (ip), vehicle: saline with Tween-80) was 100 % of control and the T/C (dose: 200.0 mg/kg/injection, schedule: Q01DX005 (ip), vehicle: saline with Tween-80) was 96 % of control.
For CCCN(CCC)CC(C)O (configuration not stated), the T/C (dose: 25.0 mg/kg/injection, schedule: Q01DX009 (ip), vehicle: saline) was 95 % of control, the T/C (dose: 50.0 mg/kg/injection, schedule: Q01DX009 (ip), vehicle: saline) was 100 % of control and the T/C (dose: 100.0 mg/kg/injection, schedule: Q01DX009 (ip), vehicle: saline) was 95 % of control.
For NCCCCC(NC(=O)C(N)Cc1cnc[nH]1)C(=O)O (stereo not drawn) (H-His-Lys-OH; configuration not given here), the T/C (dose: 50.0 mg/kg/injection, schedule: Q01DX005 (ip), vehicle: saline) was 99 % of control, the T/C (dose: 100.0 mg/kg/injection, schedule: Q01DX005 (ip), vehicle: saline) was 108 % of control and the T/C (dose: 200.0 mg/kg/injection, schedule: Q01DX005 (ip), vehicle: saline) was 100 % of control.
For O=C(NCC1CC1)NC(=O)c1c(F)cccc1Cl, the T/C (dose: 60.0 mg/kg/injection, schedule: Q01DX005 (ip), vehicle: Klucel (hydroxypropylcellulose) (HPC)) was 102 % of control, the T/C (dose: 120.0 mg/kg/injection, schedule: Q01DX005 (ip), vehicle: Klucel (hydroxypropylcellulose) (HPC)) was 106 % of control and the T/C (dose: 240.0 mg/kg/injection, schedule: Q01DX005 (ip), vehicle: Klucel (hydroxypropylcellulose) (HPC)) was 106 % of control.
For O=C1CNC(=O)N1c1ccccc1, the T/C (dose: 100.0 mg/kg/injection, schedule: Q01DX009 (ip), vehicle: saline with Tween-80) was 103 % of control, the T/C (dose: 200.0 mg/kg/injection, schedule: Q01DX009 (ip), vehicle: saline with Tween-80) was 98 % of control and the T/C (dose: 400.0 mg/kg/injection, schedule: Q01DX009 (ip), vehicle: saline with Tween-80) was 103 % of control.
